{"source": "paper PMC9083030", "about": "(RSC Advances, 2018)", "test_system": "QGY-7701 cell line", "test": "CCK-8 cell proliferation assay, QGY-7701", "assay_type": "cell-based, human", "settings": "read-out: IC50 QGY-7701; CCK8, 72 h of treatment", "data": [{"smiles": "N.N.[Cl][Pt][Cl]", "note": "[Cisplatin]", "values": [{"measurement": "IC50", "value": "8.75 ± 0.26", "unit": "µM"}]}]}
